According to ChEMBL document CHEMBL3875150, “Biological evaluation of some new N-(2,6-dimethoxypyrimidinyl) thioureido benzenesulfonamide derivatives as potential antimicrobial and anticancer agents” (Eur J Med Chem, 2016):
Values after ≈ are worked out from the molar mass of the structure shown.

What was measured:
MCF7 = assay: (§1) Cytotoxicity against human MCF7 cells assessed as decrease in cell viability after 24 hrs by MTT assay; type: functional, cell-based
[1] = as §1; type: functional, cell-based; conditions: MCF7, 24 h
Pseudomonas aeruginosa [2] = assay: Antibacterial activity against Pseudomonas aeruginosa RCMB 010043 after 24 to 48 hrs by agar well diffusion method; type: functional
Escherichia coli [3] = assay: Antibacterial activity against Escherichia coli RCMB 010052 after 24 to 48 hrs by agar well diffusion method; type: functional
Candida albicans [4] = assay: Antifungal activity against Candida albicans RCMB 005036 after 24 to 48 hrs by agar well diffusion method; type: functional
Escherichia coli [5] = assay: Antibacterial activity against Escherichia coli RCMB 010052 assessed as diameter of inhibition zone at 1 mg/mL after 24 to 48 hrs by agar well diffusion method; type: functional; conditions: read-out: DIZ
Streptococcus pneumoniae [6] = assay: Antibacterial activity against Streptococcus pneumoniae RCMB 010010 assessed as diameter of inhibition zone at 1 mg/mL after 24 to 48 hrs by agar well diffusion method; type: functional; conditions: read-out: DIZ
Aspergillus fumigatus [7] = assay: Antifungal activity against Aspergillus fumigatus RCMB 002568 after 24 to 48 hrs by agar well diffusion method; type: functional
Candida albicans [8] = assay: Antifungal activity against Candida albicans RCMB 005036 assessed as diameter of inhibition zone at 1 mg/mL after 24 to 48 hrs by agar well diffusion method; type: functional; conditions: read-out: DIZ
Pseudomonas aeruginosa [9] = assay: Antibacterial activity against Pseudomonas aeruginosa RCMB 010043 assessed as diameter of inhibition zone at 1 mg/mL after 24 to 48 hrs by agar well diffusion method; type: functional; conditions: read-out: DIZ
Bacillus subtilis [10] = assay: Antibacterial activity against Bacillus subtilis RCMB 010067 assessed as diameter of inhibition zone at 1 mg/mL after 24 to 48 hrs by agar well diffusion method; type: functional; conditions: read-out: DIZ
Aspergillus fumigatus [11] = assay: Antifungal activity against Aspergillus fumigatus RCMB 002568 assessed as diameter of inhibition zone at 1 mg/mL after 48 hrs by agar well diffusion method; type: functional; conditions: RCMB 002568, 48 h, read-out: DIZ
Streptococcus pneumoniae [12] = assay: Antibacterial activity against Streptococcus pneumoniae RCMB 010010 after 24 to 48 hrs by agar well diffusion method; type: functional
Bacillus subtilis [13] = assay: Antibacterial activity against Bacillus subtilis RCMB 010067 after 24 to 48 hrs by agar well diffusion method; type: functional

Row | SMILES | Activity (MCF7) | IC50 [1] | MIC (Pseudomonas aeruginosa [2]) | MIC (Escherichia coli [3]) | MIC (Candida albicans [4]) | zone of inhibition at 1000 µg/mL (Escherichia coli [5]) | zone of inhibition at 1000 µg/mL (Streptococcus pneumoniae [6]) | MIC (Aspergillus fumigatus [7]) | zone of inhibition at 1000 µg/mL (Candida albicans [8]) | zone of inhibition at 1000 µg/mL (Pseudomonas aeruginosa [9]) | zone of inhibition at 1000 µg/mL (Bacillus subtilis [10]) | zone of inhibition at 1000 µg/mL (Aspergillus fumigatus [11]) | MIC (Streptococcus pneumoniae [12]) | MIC (Bacillus subtilis [13])
1 | COc1cc(NS(=O)(=O)c2ccc(NC(=S)Nc3cccnc3)cc2)nc(OC)n1 | Dose-dependent effect | 170 µg/mL (≈ 380 µM) |  |  |  |  |  |  |  |  |  |  |  | 
2 | COc1cc(NS(=O)(=O)c2ccc(NC(=S)NN3C(=O)CSC3=S)cc2)nc(OC)n1 | Dose-dependent effect | 47.7 µg/mL (≈ 95.3 µM) | 62.5 µg/mL (≈ 125 µM) | 0.49 µg/mL (≈ 0.979 µM) | 1.95 µg/mL (≈ 3.9 µM) | 27.2 mm | 24.3 mm | 0.98 µg/mL (≈ 1.96 µM) | 22.3 mm | 14.9 mm | 28.1 mm | 24.3 mm | 0.98 µg/mL (≈ 1.96 µM) | 0.49 µg/mL (≈ 0.979 µM)
3 | COc1cc(NS(=O)(=O)c2ccc(NC(=S)Nc3ccncc3)cc2)nc(OC)n1 | Dose-dependent effect | 168 µg/mL (≈ 376 µM) | > 1000 µg/mL | 125 µg/mL (≈ 280 µM) | 125 µg/mL (≈ 280 µM) | 13.2 mm | 15.3 mm | 62.5 µg/mL (≈ 140 µM) | 13.9 mm |  | 15.9 mm | 15.6 mm | 62.5 µg/mL (≈ 140 µM) | 62.5 µg/mL (≈ 140 µM)
4 | CCOc1ccc2nc(NC(=S)Nc3ccc(S(=O)(=O)Nc4cc(OC)nc(OC)n4)cc3)sc2c1 | Dose-dependent effect | > 200 µg/mL | 500 µg/mL (≈ 915 µM) | 7.81 µg/mL (≈ 14.3 µM) | 7.81 µg/mL (≈ 14.3 µM) | 18.3 mm | 20.3 mm | 7.81 µg/mL (≈ 14.3 µM) | 19.1 mm | 9.2 mm | 21.3 mm | 18.3 mm | 3.9 µg/mL (≈ 7.13 µM) | 3.9 µg/mL (≈ 7.13 µM)
5 | COc1cc(NS(=O)(=O)c2ccc(NC(=S)Nc3cc(=O)n(C)c(=O)n3C)cc2)nc(OC)n1 | Dose-dependent effect | 96.1 µg/mL (≈ 189 µM) | 500 µg/mL (≈ 985 µM) | 3.9 µg/mL (≈ 7.68 µM) | 125 µg/mL (≈ 246 µM) | 19.1 mm | 17.9 mm | 62.5 µg/mL (≈ 123 µM) | 13.8 mm | 8.1 mm | 18.5 mm | 15.7 mm | 7.81 µg/mL (≈ 15.4 µM) | 3.9 µg/mL (≈ 7.68 µM)
6 | CCSc1nnc(NC(=S)Nc2ccc(S(=O)(=O)Nc3cc(OC)nc(OC)n3)cc2)s1 | Dose-dependent effect | 119 µg/mL (≈ 232 µM) |  |  |  |  |  |  | 12.5 mm |  |  | 14.3 mm |  | 
7 | COc1cc(NS(=O)(=O)c2ccc(NC(=S)Nc3ccc4c(c3)oc(=O)c3ccccc34)cc2)nc(OC)n1 | Dose-dependent effect | 40.3 µg/mL (≈ 71.5 µM) |  |  |  | 7.8 mm |  |  | 13.1 mm |  |  | 14.2 mm |  | 
8 | COc1cc(NS(=O)(=O)c2ccc(NC(=S)Nc3nc(C)cc(C)n3)cc2)nc(OC)n1 | Dose-dependent effect | 82.9 µg/mL (≈ 174 µM) |  |  |  |  |  |  |  |  |  |  |  | 
9 | COc1cc(NS(=O)(=O)c2ccc(NC(=S)Nc3cccc4nsnc34)cc2)nc(OC)n1 | Dose-dependent effect | > 200 µg/mL | 250 µg/mL (≈ 496 µM) | 0.98 µg/mL (≈ 1.95 µM) | 3.9 µg/mL (≈ 7.74 µM) | 24.2 mm | 22.7 mm | 1.95 µg/mL (≈ 3.87 µM) | 20.4 mm | 11.7 mm | 26.3 mm | 22.3 mm | 1.95 µg/mL (≈ 3.87 µM) | 0.98 µg/mL (≈ 1.95 µM)
10 | COc1cc(NS(=O)(=O)c2ccc(NC(=S)Nc3cnccn3)cc2)nc(OC)n1 | Dose-dependent effect | > 200 µg/mL | 62.5 µg/mL (≈ 140 µM) | 0.49 µg/mL (≈ 1.09 µM) | 1.95 µg/mL (≈ 4.36 µM) | 28.7 mm | 25.8 mm | 0.98 µg/mL (≈ 2.19 µM) | 23.4 mm | 18.3 mm | 26.4 mm | 24.9 mm | 0.98 µg/mL (≈ 2.19 µM) | 0.98 µg/mL (≈ 2.19 µM)
11 | COc1cc(NS(=O)(=O)c2ccc(NC(=S)Nc3nc4cc(C)c(C)cc4s3)cc2)nc(OC)n1 | Dose-dependent effect | 93.9 µg/mL (≈ 177 µM) | 250 µg/mL (≈ 471 µM) | 0.98 µg/mL (≈ 1.85 µM) | 3.9 µg/mL (≈ 7.35 µM) | 26.3 mm | 22.7 mm | 1.95 µg/mL (≈ 3.67 µM) | 21.4 mm | 10.3 mm | 25.3 mm | 23.3 mm | 1.95 µg/mL (≈ 3.67 µM) | 0.98 µg/mL (≈ 1.85 µM)
12 | COc1cc(NS(=O)(=O)c2ccc(NC(=S)Nc3ccc4c(C)cc(=O)oc4c3)cc2)nc(OC)n1 | Dose-dependent effect | 35.2 µg/mL (≈ 66.7 µM) | 125 µg/mL (≈ 237 µM) | 1.95 µg/mL (≈ 3.7 µM) | 7.81 µg/mL (≈ 14.8 µM) | 23.4 mm | 20.6 mm | 3.9 µg/mL (≈ 7.39 µM) | 18.1 mm | 10.6 mm | 23.4 mm | 20.3 mm | 3.9 µg/mL (≈ 7.39 µM) | 1.95 µg/mL (≈ 3.7 µM)
13 | O=c1[nH]cc(F)c(=O)[nH]1 [FLUOROURACIL] | Dose-dependent effect | 4.8 µg/mL (≈ 36.9 µM) |  |  |  |  |  |  |  |  |  |  |  | 
14 | C[C@@H]1[C@H](O)[C@@H](C)/C=C/C=C/C=C/C=C/C=C/C=C/C=C/[C@H](O[C@@H]2O[C@H](C)[C@@H](O)[C@H](N)[C@@H]2O)C[C@@H]2O[C@](O)(C[C@@H](O)C[C@@H](O)[C@H](O)CC[C@@H](O)C[C@@H](O)CC(=O)O[C@H]1C)C[C@H](O)[C@H]2C(=O)O [AMPHOTERICIN B] |  |  |  |  | 3.9 µg/mL (≈ 4.22 µM) |  |  | 1.95 µg/mL (≈ 2.11 µM) | 25.4 mm |  |  | 23.7 mm |  | 
15 | O=C(O)c1cn(C2CC2)c2cc(N3CCNCC3)c(F)cc2c1=O [CIPROFLOXACIN] |  |  |  |  |  | 25.8 mm | 22.4 mm |  |  | 21.3 mm | 27.2 mm |  | 0.98 µg/mL (≈ 2.96 µM) | 0.1 µg/mL (≈ 0.302 µM)
16 | COc1cc(NS(=O)(=O)c2ccc(NC(=S)Nc3nccc4ccccc34)cc2)nc(OC)n1 | Dose-dependent effect | > 200 µg/mL |  |  |  |  |  |  |  |  |  |  |  | 
17 | COc1cc(NS(=O)(=O)c2ccc(NC(=S)Nc3nnc(C)c(C)n3)cc2)nc(OC)n1 | Dose-dependent effect | 44.8 µg/mL (≈ 94 µM) |  |  |  |  |  |  |  |  |  |  |  | 
18 | COc1cc(NS(=O)(=O)c2ccc(NC(=S)Nc3c(C)n(C)n(-c4ccccc4)c3=O)cc2)nc(OC)n1 | Dose-dependent effect | 113 µg/mL (≈ 203 µM) |  |  |  |  |  |  | 12.6 mm |  |  | 13.6 mm |  | 
19 | COc1cc(NS(=O)(=O)c2ccc(NC(=S)Nc3nc4ccc([N+](=O)[O-])cc4s3)cc2)nc(OC)n1 | Dose-dependent effect | 9.43 µg/mL (≈ 17.2 µM) | > 1000 µg/mL | 125 µg/mL (≈ 228 µM) | 250 µg/mL (≈ 457 µM) | 13.3 mm | 13.3 mm | 250 µg/mL (≈ 457 µM) | 10.8 mm |  | 14.1 mm | 11.7 mm | 125 µg/mL (≈ 228 µM) | 125 µg/mL (≈ 228 µM)
20 | COc1cc(NS(=O)(=O)c2ccc(NC(=S)Nc3cc(C)nc4ccccc34)cc2)nc(OC)n1 | Dose-dependent effect | 68.7 µg/mL (≈ 135 µM) | 500 µg/mL (≈ 979 µM) | 125 µg/mL (≈ 245 µM) | 125 µg/mL (≈ 245 µM) | 15 mm | 13.9 mm | 125 µg/mL (≈ 245 µM) | 14.5 mm | 8.9 mm | 14.4 mm | 13.7 mm | 125 µg/mL (≈ 245 µM) | 125 µg/mL (≈ 245 µM)
21 | CCn1c2ccccc2c2cc(NC(=S)Nc3ccc(S(=O)(=O)Nc4cc(OC)nc(OC)n4)cc3)ccc21 | Dose-dependent effect | 143 µg/mL (≈ 254 µM) |  |  |  |  |  |  | 12.1 mm |  |  | 10.3 mm |  | 
22 | COc1cc(NS(=O)(=O)c2ccc(NC(=S)Nc3cc(=O)[nH]c(=O)[nH]3)cc2)nc(OC)n1 | Dose-dependent effect | 37.3 µg/mL (≈ 77.8 µM) | 500 µg/mL (≈ 1040 µM) | 0.98 µg/mL (≈ 2.04 µM) | 3.9 µg/mL (≈ 8.13 µM) | 24.3 mm | 22.3 mm | 3.9 µg/mL (≈ 8.13 µM) | 20.1 mm | 8.5 mm | 26.1 mm | 21.3 mm | 1.95 µg/mL (≈ 4.07 µM) | 0.98 µg/mL (≈ 2.04 µM)
23 | COc1cc(NS(=O)(=O)c2ccc(NC(=S)Nc3nc4c(OC)cccc4s3)cc2)nc(OC)n1 | Dose-dependent effect | 47.6 µg/mL (≈ 89.4 µM) | 500 µg/mL (≈ 939 µM) | 62.5 µg/mL (≈ 117 µM) | 125 µg/mL (≈ 235 µM) | 16.2 mm | 17.8 mm | 7.81 µg/mL (≈ 14.7 µM) | 13.2 mm | 8.9 mm | 18.3 mm | 16.4 mm | 7.81 µg/mL (≈ 14.7 µM) | 7.81 µg/mL (≈ 14.7 µM)
